Measured values published in patent US6008233A, “(1S,2S)-1-(4-hydroxyphenyl)-2-(4- hydroxy-4-phenylipiperidin-1-yl)-1-propanolmethanesulfonate trihydrate” (Pfizer Inc, priority 1998, dated 1999).
Structures can show the parent of a compound that is named as a salt.

What was measured:
[1] = tested on: hippocampal cells; experiment: Neuroprotective activity: glutamate toxicity in cultured fetal rat hippocampal cells (LDH release); assay type: cell-based; settings: in words
Description: The preferred procedure for evaluating the neuroprotective activity of this compound is that described by Ismail A. Shalaby, et al., in J. Pharm. and Experimental Therapeutics, 260, 925 (1992). This article is incorporated herein by reference in its entirety and described below.
Cell culture. […]
Glutamate toxicity. The cultures are assessed for glutamate toxicity 2 to 3 weeks from initial plating. […]
Cell viability is routinely assessed 20 to 24 hours after the excitotoxin exposure by measuring the activity of the cytosolic enzyme LDH. LDH activity is determined from the culture medium of each of the 96 wells of the microtiter plates. […] The 340 nm absorbance of the total reaction mixture for each of the 96 wells is monitored every 5 sec for 2 min by an automated spectrophotometric microtiter plate reader (Molecular Devices; Menlo Park, Calif.). The rate of absorbance is automatically calculated using an IBM SOFTmax program (version 1.01; Molecular Devices) and is used as the index of LDH activity.
Morphological assessment of neuronal viability is determined using phrase contrast microscopy. […] Quantitatively, both culture platings are equally sensitive to glutamate toxicity, and display 2- to 3-fold increases in LDH activity 24 hours after exposure to 0.1 to 1.0 mM glutamate. […]

[2] = tested on: NMDA (N-methyl-D-aspartic acid) receptor; experiment: NMDA receptor antagonist activity; settings: in words
[3] = Hygroscopicity at 0%, 52% and 98% controlled relative humidities and under ambient laboratory conditions; assay type: physicochemical
[4] = Bulk stability samples stored in polyethylene bags; assay type: physicochemical; settings: 40° C./30% RH, 9 months
Description: Weight loss was also observed in bulk stability samples stored in polyethylene bags at 40° C./30% RH (>10% of weight was lost in 9 months).

[5] = Stability of crystalline form and shelf life compared to the anhydrous mesylate; assay type: physicochemical; settings: compared with the corresponding anhydrous salt
[6] = Hygroscopicity at ambient conditions of the anhydrous mesylate salt (Table 3); assay type: physicochemical
Excerpt: HYGROSCOPICITY AT AMBIENT CONDITIONS OF THE ANHYDROUS MESYLATE SALT

[7] = Equilibration of the anhydrous mesylate in an 81% RH environment; assay type: physicochemical; settings: equilibrated in an 81% RH environment
Excerpt: FIG. 1 depicts the X-ray powder diffraction spectrum of the mesylate trihydrate (taken on a Siemens D 5000 diffractometer after equilibration of the anhydrous mesylate at 81% relative humidity ("RH")), expressed as intensity (CPS) versus diffraction angle (two-theta degrees).

For `C[C@@H]([C@@H](O)c1ccc(O)cc1)N1CCC(O)(c2ccccc2)CC1` [free base, (1S,2S)-1-(4-hydroxyphenyl)-2-(4-hydroxy-4-phenylpiperidin-1-yl)-1-propanol], the neuroprotective activity [1] was “possesses selective neuroprotective activity” and the “activity as NMDA receptor antagonist” value [2] was “exhibit activity as NMDA (N-methyl-D-aspartic acid) receptor antagonists”.

In the case of `CC(C(O)c1ccc(O)cc1)N1CCC(O)(c2ccccc2)CC1` [mesylate salt trihydrate, (1S,2S)-1-(4-hydroxyphenyl)-2-(4-hydroxy-4-phenylpiperidin-1-yl)-1-propanol methanesulfonate trihydrate], the “loss of waters of hydration” value ([3]; 0% RH) is reported as “Loss of waters of hydration is observed”, the weight change ([3]; 52% RH) is reported as “No weight change” and the weight change ([3]; 98% RH) is reported as “No weight change”. For the same molecule, the weight change ([3]; ambient laboratory conditions (24-27° C., 31-64% RH's)) was “No weight change”, the “reversibility of weight loss observed at 0% RH” value ([3]; exposure to higher humidities after 0% RH) was “reversible” and the weight lost [4] was greater than 10%. The “breakdown of the crystal structure” value [5] was “less subject to breakdown of the crystal structure”, the shelf life [5] was “substantially longer shelf life” and the “stability of crystalline form” value [5] was “more stable crystalline form than the corresponding anhydrous salt”. For the same molecule, the neuroprotective activity [1] was “possesses selective neuroprotective activity” and the “activity as NMDA receptor antagonist” value [2] was “exhibit activity as NMDA (N-methyl-D-aspartic acid) receptor antagonists”.

In the case of `CC(C(O)c1ccc(O)cc1)N1CCC(O)(c2ccccc2)CC1` (centres unmarked) [anhydrous mesylate], the “re-equilibration to the hydrated form” value ([3]; anhydrous form exposed to higher humidities) is reported as “quickly equilibrated to the hydrated form”, the “% Difference from Initial” value ([6]; 1 hours since initial) is reported as 0.06% and the “% Difference from Prev. Weighing” value ([6]; 1 hours since initial) is reported as 0.06%. The “Weight of Sample” value ([6]; 1 hours since initial) was 0.4977 g, the “% Difference from Initial” value ([6]; 3.5 hours since initial) was 0.06% and the “% Difference from Prev. Weighing” value ([6]; 3.5 hours since initial) was 0.00%. For the same molecule, the “Weight of Sample” value ([6]; 3.5 hours since initial) was 0.4977 g, the “% Difference from Initial” value ([6]; 22 hours since initial) was 0.32% and the “% Difference from Prev. Weighing” value ([6]; 22 hours since initial) was 0.26%. For the same molecule, the “Weight of Sample” value ([6]; 22 hours since initial) was 0.4990 g, the “% Difference from Initial” value ([6]; 30.5 hours since initial) was 0.56% and the “% Difference from Prev. Weighing” value ([6]; 30.5 hours since initial) was 0.24%. The “Weight of Sample” value ([6]; 30.5 hours since initial) was 0.5002 g, the “% Difference from Initial” value ([6]; 45.5 hours since initial) was 1.93% and the “% Difference from Prev. Weighing” value ([6]; 45.5 hours since initial) was 1.36%. The “Weight of Sample” value ([6]; 45.5 hours since initial) was 0.5070 g, the “% Difference from Initial” value ([6]; 98 hours since initial) was 2.57% and the “% Difference from Prev. Weighing” value ([6]; 98 hours since initial) was 0.63%. The “Weight of Sample” value ([6]; 98 hours since initial) was 0.5102 g, the “% Difference from Initial” value ([6]; 170 hours since initial) was 3.94% and the “% Difference from Prev. Weighing” value ([6]; 170 hours since initial) was 1.33%. For the same molecule, the “Weight of Sample” value ([6]; 170 hours since initial) was 0.5170 g, the “% Difference from Initial” value ([6]; 194 hours since initial) was 3.94% and the “% Difference from Prev. Weighing” value ([6]; 194 hours since initial) was 0.00%. For the same molecule, the “Weight of Sample” value ([6]; 194 hours since initial) was 0.5170 g, the “% Difference from Initial” value ([6]; 215 hours since initial) was 3.96% and the “% Difference from Prev. Weighing” value ([6]; 215 hours since initial) was 0.02%. The “Weight of Sample” value ([6]; 215 hours since initial) was 0.5171 g, the “% Difference from Initial” value ([6]; 246 hours since initial) was 4.22% and the “% Difference from Prev. Weighing” value ([6]; 246 hours since initial) was 0.25%. The “Weight of Sample” value ([6]; 246 hours since initial) was 0.5184 g, the “% Difference from Initial” value ([6]; 382 hours since initial) was 4.60% and the “% Difference from Prev. Weighing” value ([6]; 382 hours since initial) was 0.37%. The “Weight of Sample” value ([6]; 382 hours since initial) was 0.5203 g, the “% Difference from Initial” value ([6]; 408 hours since initial) was 4.40% and the “% Difference from Prev. Weighing” value ([6]; 408 hours since initial) was -0.19%. The “Weight of Sample” value ([6]; 408 hours since initial) was 0.5193 g, the “% Difference from Initial” value ([6]; 533 hours since initial) was 4.40% and the “% Difference from Prev. Weighing” value ([6]; 533 hours since initial) was 0.00%. For the same molecule, the “Weight of Sample” value ([6]; 533 hours since initial) was 0.5193 g, the “Weight of Sample” value ([6]; initial) was 0.4974 g and the “weight gain at ambient conditions” value ([6]; summary in words) was “substantial weight gain”. The “conversion to the mesylate salt trihydrate” value [7] was “will convert to the mesylate salt trihydrate”.
